# Experimental data: the supplement of paper PMC12463676, “Small-molecule dissolution of stress granules by redox modulation benefits ALS models” (Nature Chemical Biology, 2025)
# Columns and labels:
# potassium arsenate = compound: O=[As]([O-])(O)O.[K+] [potassium arsenate]; test: thermal stability z-score vs DMSO; higher = more thermally stabilized by treatment; conditions: HeLa; arsenate concentration 1 mM
# Procedure: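 Cellular thermal proteome profiling in HeLa cells treated with 1 mM arsenate for 1 h (DMSO pretreatment), heated to ten temperatures (37-66.3 °C). Soluble protein was quantified by TMT mass spectrometry relative to DMSO controls; the thermal stability score was transformed to a z-score; mean of n = 3 experiments.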
# lipoamide = compound: NC(=O)CCCCC1CCSS1 [lipoamide]; test: as above; conditions: HeLa, lipoamide concentration 100 µM
# Procedure: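 Cellular thermal proteome profiling in HeLa cells. Cells were treated with 100 µM lipoamide for 1 h, with or without 1 mM arsenate for a further 1 h, then heated to ten temperatures (37-66.3 °C), and soluble protein was quantified by TMT mass spectrometry relative to 0.1% DMSO controls. The thermal stability score (sum of log2 fold changes minus the abundance score) was transformed to a z-score; mean of n = 3 experiments.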
# [1] = arsenate co-treatment: 1 mM arsenate 1 h
# 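Note: each temperature applied for 3 min, abundance score taken as mean log2 fold change at the two lowest temperatures, z-score obtained by mean subtraction and division by SD.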
# UniProt Q9NRN9, sequence (Q9NRN9 whole entry): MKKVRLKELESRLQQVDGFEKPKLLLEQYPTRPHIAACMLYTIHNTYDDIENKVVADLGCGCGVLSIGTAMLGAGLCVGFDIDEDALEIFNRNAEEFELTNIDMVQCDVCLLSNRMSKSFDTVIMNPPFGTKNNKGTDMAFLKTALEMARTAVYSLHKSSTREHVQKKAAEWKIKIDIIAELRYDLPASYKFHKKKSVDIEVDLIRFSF
# UniProt Q8IYB7, sequence (Q8IYB7 whole entry): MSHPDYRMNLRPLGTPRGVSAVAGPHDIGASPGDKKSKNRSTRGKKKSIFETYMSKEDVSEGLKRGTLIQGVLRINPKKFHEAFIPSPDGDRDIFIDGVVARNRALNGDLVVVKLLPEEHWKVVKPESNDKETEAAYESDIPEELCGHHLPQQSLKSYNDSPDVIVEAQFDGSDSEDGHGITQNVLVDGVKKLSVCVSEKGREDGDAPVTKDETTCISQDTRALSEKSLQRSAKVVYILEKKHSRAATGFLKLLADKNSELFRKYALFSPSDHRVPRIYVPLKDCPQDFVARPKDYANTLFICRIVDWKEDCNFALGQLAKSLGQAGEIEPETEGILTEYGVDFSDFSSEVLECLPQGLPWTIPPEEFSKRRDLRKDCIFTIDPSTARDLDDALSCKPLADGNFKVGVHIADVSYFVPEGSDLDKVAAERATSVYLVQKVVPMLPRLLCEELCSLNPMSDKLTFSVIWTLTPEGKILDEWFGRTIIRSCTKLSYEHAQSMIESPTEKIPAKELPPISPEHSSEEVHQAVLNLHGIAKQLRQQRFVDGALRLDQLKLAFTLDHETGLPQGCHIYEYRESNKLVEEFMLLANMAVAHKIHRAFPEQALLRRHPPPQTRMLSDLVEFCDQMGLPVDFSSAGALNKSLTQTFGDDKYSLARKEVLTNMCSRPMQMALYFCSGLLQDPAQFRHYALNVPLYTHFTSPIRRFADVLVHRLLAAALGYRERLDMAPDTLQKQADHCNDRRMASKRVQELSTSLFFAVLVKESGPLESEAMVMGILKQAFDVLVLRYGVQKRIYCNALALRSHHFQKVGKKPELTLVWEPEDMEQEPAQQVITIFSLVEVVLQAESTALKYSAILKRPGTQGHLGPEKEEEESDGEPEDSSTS
# UniProt Q9UL40, sequence (Q9UL40 whole entry): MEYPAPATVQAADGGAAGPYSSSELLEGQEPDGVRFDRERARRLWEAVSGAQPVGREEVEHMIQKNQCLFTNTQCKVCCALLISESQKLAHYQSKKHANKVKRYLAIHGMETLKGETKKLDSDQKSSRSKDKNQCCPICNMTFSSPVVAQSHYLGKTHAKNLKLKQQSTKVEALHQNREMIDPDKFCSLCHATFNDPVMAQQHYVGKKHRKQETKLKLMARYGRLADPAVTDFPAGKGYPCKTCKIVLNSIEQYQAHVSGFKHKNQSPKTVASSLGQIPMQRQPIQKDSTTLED
# UniProt Q92604, sequence (Q92604 whole entry): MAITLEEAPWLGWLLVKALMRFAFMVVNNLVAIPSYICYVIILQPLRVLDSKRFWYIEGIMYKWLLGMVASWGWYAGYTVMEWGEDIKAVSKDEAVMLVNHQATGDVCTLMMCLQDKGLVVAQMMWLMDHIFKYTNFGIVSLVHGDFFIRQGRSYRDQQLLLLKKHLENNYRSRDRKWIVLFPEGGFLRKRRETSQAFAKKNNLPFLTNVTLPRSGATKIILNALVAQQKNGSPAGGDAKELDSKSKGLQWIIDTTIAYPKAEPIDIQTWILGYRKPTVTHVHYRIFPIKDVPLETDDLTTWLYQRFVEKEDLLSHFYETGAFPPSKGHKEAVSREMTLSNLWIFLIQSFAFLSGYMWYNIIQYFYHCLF
# UniProt O95394, sequence (O95394 whole entry): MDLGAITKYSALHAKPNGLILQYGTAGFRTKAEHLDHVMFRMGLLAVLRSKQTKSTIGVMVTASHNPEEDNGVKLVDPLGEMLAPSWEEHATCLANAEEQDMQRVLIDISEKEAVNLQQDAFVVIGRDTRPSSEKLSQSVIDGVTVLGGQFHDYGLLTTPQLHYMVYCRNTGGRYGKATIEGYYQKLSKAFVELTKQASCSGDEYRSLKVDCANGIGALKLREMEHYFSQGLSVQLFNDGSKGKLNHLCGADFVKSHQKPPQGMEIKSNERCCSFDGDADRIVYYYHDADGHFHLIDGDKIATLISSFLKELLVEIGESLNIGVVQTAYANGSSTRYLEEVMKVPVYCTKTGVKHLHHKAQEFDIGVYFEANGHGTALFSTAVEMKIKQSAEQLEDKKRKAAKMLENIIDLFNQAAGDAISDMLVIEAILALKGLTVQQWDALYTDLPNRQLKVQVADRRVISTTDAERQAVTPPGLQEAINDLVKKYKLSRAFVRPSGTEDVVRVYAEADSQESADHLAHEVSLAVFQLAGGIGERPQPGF
# UniProt Q69YN2, sequence (Q69YN2 whole entry): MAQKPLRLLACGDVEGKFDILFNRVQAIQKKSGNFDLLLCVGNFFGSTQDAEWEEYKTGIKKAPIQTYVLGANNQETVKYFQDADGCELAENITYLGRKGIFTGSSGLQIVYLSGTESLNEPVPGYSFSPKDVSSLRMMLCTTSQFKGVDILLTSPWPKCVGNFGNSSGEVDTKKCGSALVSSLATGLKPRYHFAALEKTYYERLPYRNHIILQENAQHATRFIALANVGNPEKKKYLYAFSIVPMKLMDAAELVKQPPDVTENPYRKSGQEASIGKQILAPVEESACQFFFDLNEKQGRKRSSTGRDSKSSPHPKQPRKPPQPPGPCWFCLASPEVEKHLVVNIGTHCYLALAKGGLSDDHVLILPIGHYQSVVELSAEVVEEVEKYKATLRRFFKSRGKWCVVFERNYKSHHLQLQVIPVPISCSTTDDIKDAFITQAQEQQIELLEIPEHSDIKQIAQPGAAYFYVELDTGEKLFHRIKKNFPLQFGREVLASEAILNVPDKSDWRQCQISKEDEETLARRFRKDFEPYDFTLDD
# UniProt Q92882, sequence (Q92882 whole entry): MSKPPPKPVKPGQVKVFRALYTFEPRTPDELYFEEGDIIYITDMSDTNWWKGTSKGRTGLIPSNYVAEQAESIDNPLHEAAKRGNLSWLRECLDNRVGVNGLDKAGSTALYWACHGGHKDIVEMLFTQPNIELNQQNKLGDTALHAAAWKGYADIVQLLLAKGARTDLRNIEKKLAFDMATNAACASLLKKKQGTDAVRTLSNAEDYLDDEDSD
# UniProt P23511, sequence (P23511 whole entry): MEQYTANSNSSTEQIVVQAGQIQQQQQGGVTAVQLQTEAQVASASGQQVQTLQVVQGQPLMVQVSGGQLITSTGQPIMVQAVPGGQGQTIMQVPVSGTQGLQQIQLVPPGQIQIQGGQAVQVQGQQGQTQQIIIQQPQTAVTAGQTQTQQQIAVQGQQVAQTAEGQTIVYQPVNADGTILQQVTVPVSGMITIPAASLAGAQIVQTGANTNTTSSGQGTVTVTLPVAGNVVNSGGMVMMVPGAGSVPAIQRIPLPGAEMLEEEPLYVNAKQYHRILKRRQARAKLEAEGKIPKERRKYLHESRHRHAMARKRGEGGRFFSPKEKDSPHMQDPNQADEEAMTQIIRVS
# UniProt Q14703, sequence (Q14703 whole entry): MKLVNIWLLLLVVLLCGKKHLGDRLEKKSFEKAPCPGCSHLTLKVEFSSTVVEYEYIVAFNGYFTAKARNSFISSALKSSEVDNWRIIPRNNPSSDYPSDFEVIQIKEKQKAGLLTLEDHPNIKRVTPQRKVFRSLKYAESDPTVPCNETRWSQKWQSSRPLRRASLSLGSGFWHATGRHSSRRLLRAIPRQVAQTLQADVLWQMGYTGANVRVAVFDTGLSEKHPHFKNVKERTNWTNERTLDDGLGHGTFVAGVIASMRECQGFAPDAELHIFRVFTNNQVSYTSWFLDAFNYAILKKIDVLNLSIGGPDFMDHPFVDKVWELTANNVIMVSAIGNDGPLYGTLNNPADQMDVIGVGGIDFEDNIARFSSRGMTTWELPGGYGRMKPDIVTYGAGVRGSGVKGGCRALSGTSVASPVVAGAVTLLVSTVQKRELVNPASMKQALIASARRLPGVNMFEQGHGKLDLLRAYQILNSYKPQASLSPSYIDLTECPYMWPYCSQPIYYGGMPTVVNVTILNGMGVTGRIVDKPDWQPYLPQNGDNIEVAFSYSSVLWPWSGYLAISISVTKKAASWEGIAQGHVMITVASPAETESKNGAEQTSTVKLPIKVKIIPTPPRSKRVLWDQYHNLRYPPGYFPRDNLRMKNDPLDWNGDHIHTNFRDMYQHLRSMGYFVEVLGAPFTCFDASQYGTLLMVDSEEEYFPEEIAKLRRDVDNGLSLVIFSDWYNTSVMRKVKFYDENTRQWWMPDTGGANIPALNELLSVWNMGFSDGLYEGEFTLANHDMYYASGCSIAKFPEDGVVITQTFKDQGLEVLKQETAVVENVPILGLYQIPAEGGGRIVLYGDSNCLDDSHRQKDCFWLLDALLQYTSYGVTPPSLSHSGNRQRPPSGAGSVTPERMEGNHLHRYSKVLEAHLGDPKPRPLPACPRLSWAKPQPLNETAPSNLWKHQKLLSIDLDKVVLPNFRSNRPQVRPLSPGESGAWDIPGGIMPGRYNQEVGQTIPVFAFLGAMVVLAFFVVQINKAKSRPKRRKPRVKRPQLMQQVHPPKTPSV
# UniProt O75144, sequence (O75144 whole entry): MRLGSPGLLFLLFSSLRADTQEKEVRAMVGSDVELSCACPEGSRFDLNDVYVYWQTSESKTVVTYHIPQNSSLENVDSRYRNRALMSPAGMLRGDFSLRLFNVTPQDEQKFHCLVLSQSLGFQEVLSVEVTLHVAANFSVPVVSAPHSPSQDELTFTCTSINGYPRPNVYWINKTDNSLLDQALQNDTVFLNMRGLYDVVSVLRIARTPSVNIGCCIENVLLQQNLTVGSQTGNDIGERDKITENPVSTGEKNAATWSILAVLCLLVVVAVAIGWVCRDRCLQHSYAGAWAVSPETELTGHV
# UniProt P61599, sequence (P61599 whole entry): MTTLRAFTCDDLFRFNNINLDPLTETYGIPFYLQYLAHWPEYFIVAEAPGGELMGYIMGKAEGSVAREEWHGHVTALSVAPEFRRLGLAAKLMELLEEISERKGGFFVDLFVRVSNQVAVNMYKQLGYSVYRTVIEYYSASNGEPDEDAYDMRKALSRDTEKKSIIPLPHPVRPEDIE
Target,thermal stability z-score (potassium arsenate),thermal stability z-score (lipoamide; [1]),thermal stability z-score (lipoamide; arsenate co-treatment: none)
RNF25 (UniProt Q96BH1),-1.12,-0.412,-0.217
MTG1 (UniProt Q9BT17),0.195,0.0673,0.0916
WDR48 (UniProt Q8TAF3),1.13,0.197,0.3
RPS26 (UniProt P62854),-0.743,0.0208,0.263
CYTH1 (UniProt Q15438),0.0222,-0.178,0.00951
SLC9A1 (UniProt P19634),0.274,-0.174,-0.629
SH3RF1 (UniProt Q7Z6J0),-0.327,-0.0346,0.00665
APBB2 (UniProt Q92870),0.0987,0.078,-0.11
TMEM165 (UniProt Q9HC07),0.116,0.669,-0.0469
C19ORF53 (UniProt Q9UNZ5),-0.988,0.3,0.508
MMAB (UniProt Q96EY8),-0.58,-1.28,-1.35
DAP (UniProt P51397),-0.0556,1.03,0.89
PGM3 (UniProt O95394),0.188,0.0643,-0.0248
NDUFAF1 (UniProt Q9Y375),-0.0374,-0.593,-0.335
FLVCR1 (UniProt Q9Y5Y0),-0.43,-0.393,-0.367
MTA1 (UniProt Q13330),-1.05,0.06,0.414
GTF3C1 (UniProt Q12789),-0.534,0.0666,-0.0357
NUDT15 (UniProt Q9NV35),-0.373,0.686,0.121
ZNF346 (UniProt Q9UL40),0.04,-0.17,0.0809
GYS1 (UniProt P13807),0.706,0.31,0.22
DPP8 (UniProt Q6V1X1),0.257,0.32,0.543
DPP7 (UniProt Q9UHL4),-0.0217,0.246,0.304
DHPS (UniProt P49366),0.603,0.538,0.536
ASNS (UniProt P08243),-0.303,1.69,0.131

Target,thermal stability z-score (potassium arsenate),thermal stability z-score (lipoamide; [1]),thermal stability z-score (lipoamide; arsenate co-treatment: none)
UPF3B (UniProt Q9BZI7),0.667,-0.0795,0.00475
TAPBP (UniProt O15533),0.709,-3.75,-2.54
RAB6A (UniProt P20340),0.284,0.448,0.693
HMMR (UniProt O75330),0.594,-0.103,0.233
DNAJC13 (UniProt O75165),0.201,-0.118,-0.226
MTRR (UniProt Q9UBK8),0.111,0.00117,-0.531
LSM3 (UniProt P62310),-0.624,0.229,-0.327
GSE1 (UniProt Q14687),-0.12,0.0903,0.0397
MBTPS1 (UniProt Q14703),-0.822,-0.923,-0.876
XRCC4 (UniProt Q13426),1.24,2.01,1.89
LPGAT1 (UniProt Q92604),0.251,-0.218,0.0487
ERCC3 (UniProt P19447),0.156,0.0686,0.0573
H2AFX (UniProt P16104),-0.415,-0.033,-0.0884
HEATR1 (UniProt Q9H583),-0.114,-1.73,-1.13
UBAC1 (UniProt Q9BSL1),0.576,0.447,-0.0576
USP6NL (UniProt Q92738),0.0467,0.194,-0.0598
METTL5 (UniProt Q9NRN9),0.233,0.768,-0.318
CAMK2G (UniProt Q13555),0.174,-0.504,-0.174
MRPL30 (UniProt Q8TCC3),0.112,-0.325,0.266
ICOSLG (UniProt O75144),-0.984,-0.136,-0.0493
OSTF1 (UniProt Q92882),0.00115,-0.217,0.551
DDX42 (UniProt Q86XP3),0.47,0.815,0.837
KIFC3 (UniProt Q9BVG8),-0.23,-0.119,-0.358
KATNBL1 (UniProt Q9H079),0.427,0.226,0.62

Target,thermal stability z-score (potassium arsenate),thermal stability z-score (lipoamide; [1]),thermal stability z-score (lipoamide; arsenate co-treatment: none)
SLC25A28 (UniProt Q96A46),1.81,0.65,0.529
DIS3L2 (UniProt Q8IYB7),0.155,-0.225,0.566
TVP23C|TVP23B,0.27,0.653,1.19
REL (UniProt Q04864),0.22,-0.801,0.147
DDX46 (UniProt Q7L014),-1.2,0.411,0.501
TCEA1 (UniProt P23193),-0.117,0.138,0.297
GPR89A|GPR89B,-0.0938,-0.28,-0.026
CWF19L1 (UniProt Q69YN2),-0.198,-0.381,-0.106
BIRC2 (UniProt Q13490),-0.483,-0.731,-0.56
NAA20 (UniProt P61599),0.0823,0.753,0.153
NFYA (UniProt P23511),-0.528,0.401,-0.0763
BAG1 (UniProt Q99933),-0.464,-0.351,0.0085
TTN (UniProt Q8WZ42),0.121,0.609,0.578
CLIC1 (UniProt O00299),-0.144,0.85,0.348
HSPG2 (UniProt P98160),2.43,0.252,0.126
ARHGAP5 (UniProt Q13017),-0.265,0.182,-0.703
EXOC6B (UniProt Q9Y2D4),0.332,0.36,1.01
DNAJC25 (UniProt Q9H1X3),0.282,-1.46,-0.0502
IFT140 (UniProt Q96RY7),0.083,-0.182,-0.038
HSPA2 (UniProt P54652),0.26,-0.295,0.552
IFI30 (UniProt P13284),-0.049,1.71,0.524
HDAC2 (UniProt Q92769),-0.0176,4.76,4.53
CCDC58 (UniProt Q4VC31),0.303,0.552,0.284
